Results reported in patent publication US7091033B2, “Array of toxicologically relevant canine genes and uses thereof” (Phase-1 Molecular Toxicology, Inc., priority 2000, dated 2006).

Tested on: canine genes differentially expressed in organs (liver, spleen, kidney, testes, heart, thymus)
Assay: Transcriptome profiling / differential display of tissues from canines exposed to an agent versus vehicle (reverse transcription, PCR, reamplification of bands, sequencing)
Type: in vivo
[1] = Band # CTP3B, Homo Sapien N-myc dow BC003175, larger band of doublet
[2] = Band # CTP27C, Homo sapiens CTCL turn AF177227

COc1cc([C@@H]2c3cc4c(cc3[C@@H](O[C@@H]3O[C@@H]5CO[C@@H](C)O[C@H]5[C@H](O)[C@H]3O)[C@H]3COC(=O)[C@H]23)OCO4)cc(OC)c1O [etoposide]
Expression Pattern [1]: doublet-larger band is upregulated
Expression Pattern [2]: repressed with etoposide and aspirin
Expression Pattern (Band # CTP37A, Homo sapiens nuclear fax AF167569): repressed with etoposide
Expression Pattern (Band # CTP143B, No significant match): induced with etoposide and caffeine
Expression Pattern (Band # CTP150A, No significant match): repressed with etoposide
Expression Pattern (Band # CTP150C, Canis familiaris mitochon CFU96639): repressed with etoposide
Expression Pattern (Band # CTP156J, Human DNA sequence fn AL136120): induced with etoposide and caffeine
Expression Pattern (Band # CTP216A, Canis familiaris heat-shoc U19368): repressed with etoposide

CC(=O)Oc1ccccc1C(=O)O [aspirin]
Expression Pattern (Band # CTP1D, No significant match): upregulated with Etoposide, caffeine
Expression Pattern (Band # CTP1G, No significant match): upregulated with Etoposide, caffeine
Expression Pattern [1]: doublet-larger band is upregulated
Expression Pattern (Band # CTP25D, No significant match): repressed with caffeine and aspirin
Expression Pattern (Band # CTP26A, Canis familiaris chymase U89607): repressed with caffeine and aspirin
Expression Pattern (Band # CTP26B, H. sapiens cycA gene for X68303): repressed with caffeine and aspirin
Expression Pattern [2]: repressed with etoposide and aspirin
Expression Pattern (Band # CTP32D, cDNA FLJ14795 fls, clone AK027701): repressed with caffeine and aspirin
Expression Pattern (Band # CTP144B, No significant match): repressed with caffeine and aspirin
Expression Pattern (Band # CTP145B, No significant match): repressed with aspirin
Expression Pattern (Band # CTP148B, Homo sapiens serine-thre AF108830): induced with aspirin
Expression Pattern (Band # CTP161B, Canis familiaris TCTA ger AJ012166): induced with aspirin
Expression Pattern (Band # CTP164A, No significant match): induced with aspirin
Expression Pattern (Band # CTP215B, No significant match): induced with aspirin
Expression Pattern (Band # CTP222D, No significant match): induced with aspirin

N.N.[Cl][Pt][Cl] [cisplatin]
Expression Pattern (Band # CTP31A, No significant match): upregulated in cisplatin
Expression Pattern (Band # CTP41B, Homo sapiens mRNA for AB037813): repressed in cisplatin
Expression Pattern (Band # CTP47G, No significant match): induced with cisplatin
Expression Pattern (Band # CTP50A, No significant match): induced with cisplatin
Expression Pattern (Band # CTP51A, Homo sapiens intestinal 1 AF219991): induced with cisplatin
Expression Pattern (Band # CTP52B, No significant match): induced with cisplatin
Expression Pattern (Band # CTP53A, No significant match): induced with cisplatin
Expression Pattern (Band # CTP59A, Homo sapiens cyclin D2 (XM_012143)): induced with cisplatin
Expression Pattern (Band # CTP62A, No significant match): induced with cisplatin
Expression Pattern (Band # CTP63A, No significant match): induced with cisplatin
Expression Pattern (Band # CTP64B, No significant match): induced with cisplatin
Expression Pattern (Band # CTP67A, clone RP5-1071L10 on cl AL133228): repressed with cisplatin
Expression Pattern (Band # CTP68F, Oryctolagus cuniculus Ne U09823): repressed with cisplatin
Expression Pattern (Band # CTP70A, No significant match): repressed with cisplatin
Expression Pattern (Band # CTP72B, No significant match): repressed with cisplatin
Expression Pattern (Band # CTP73A, Homo sapiens chromosor AC026201): repressed with cisplatin
Expression Pattern (Band # CTP73B, No significant match): repressed with cisplatin
Expression Pattern (Band # CTP74A, No significant match): repressed with carbo, trans and cisplatin
Expression Pattern (Band # CTP75C, No significant match): repressed with carbo, trans and cisplatin
Expression Pattern (Band # CTP76B, No significant match): induced with cisplatin
Expression Pattern (Band # CTP77D, No significant match): repressed with cisplatin
Expression Pattern (Band # CTP78B, Homo sapiens SON DNA XM_009738): induced with cisplatin
Expression Pattern (Band # CTP79B, No significant match): induced with cisplatin
Expression Pattern (Band # CTP80A, Homo sapiens WDR4 ger AB039887): repressed with cisplatin
Expression Pattern (Band # CTP81A, No significant match): induced with cisplatin
Expression Pattern (Band # CTP85D, Homo sapiens Rho-assoc XM_008814): repressed with carbo, trans and cisplatin
Expression Pattern (Band # CTP86F, Homo sapiens chromodoi NM_001272): induced with cisplatin
Expression Pattern (Band # CTP87B, Homo sapiens tetratricopi XM_009760): induced with cisplatin
Expression Pattern (Band # CTP88A, Rattus norvegicus ribosor NM_022506): repressed with cisplatin
Expression Pattern (Band # CTP89B, Homo sapiens genomic [AP003473): induced with cisplatin
Expression Pattern (Band # CTP90A, Homo sapiens clone 248(AF070622)): induced with cisplatin
Expression Pattern (Band # CTP92A, No significant match): induced with cisplatin
Expression Pattern (Band # CTP92C, Human DNA sequence fn AL133286): induced with cisplatin
Expression Pattern (Band # CTP93F, clone RP1-211D12 on ch Z93016): induced with cisplatin
Expression Pattern (Band # CTP94B, Homo sapiens clathrin, h NM_008305): induced with cisplatin
Expression Pattern (Band # CTP99A, No significant match): repressed with cisplatin
Expression Pattern (Band # CTP100A, COX15 (yeast) homolog, BC002382): induced with cisplatin
Expression Pattern (Band # CTP103JJ, No significant match): induced with cisplatin
Expression Pattern (Band # CTP104I, No significant match): repressed with cisplatin
Expression Pattern (Band # CTP109P, No significant match): induced with cisplatin
Expression Pattern (Band # CTP110A, No significant match): induced with cisplatin
Expression Pattern (Band # CTP111A, No significant match): induced with cisplatin
Expression Pattern (Band # CTP112B, Bos taurus peroxiredoxin AF305561): induced with cisplatin
Expression Pattern (Band # CTP113A, Box taurus ribosomal proi AF063243): induced with cisplatin
Expression Pattern (Band # CTP115B, Homo sapiens chromosoi AC005899): induced with cisplatin
Expression Pattern (Band # CTP116A, No significant match): induced with cisplatin
Expression Pattern (Band # CTP117B, Homo sapiens similar to XM_017740): induced with cisplatin
Expression Pattern (Band # CTP119J, H. sapiens SPR-2 mRNA 1X68560 S52): induced with cisplatin
Expression Pattern (Band # CTP121D, Human ribosomal protein U43701): induced with cisplatin
Expression Pattern (Band # CTP124B, No significant match): induced with cisplatin
Expression Pattern (Band # CTP126A, No significant match): induced with cisplatin
Expression Pattern (Band # CTP131B, Homo sapiens similar to s XM_006087): induced with cisplatin
Expression Pattern (Band # CTP133B, No significant match): induced with cisplatin
Expression Pattern (Band # CTP134A, No significant match): induced with cisplatin
Expression Pattern (Band # CTP135A, Homo sapiens cDNA FLJAK021570): induced with cisplatin
Expression Pattern (Band # CTP300B, Homo sapiens utrophin (I-NM_007124)): repressed with cisplatin
Expression Pattern (Band # CTP304B, Homo sapiens unknov XM_002211): induced with cisplatin
Expression Pattern (Band # CTP306B, No significant match): induced with cisplatin
Expression Pattern (Band # CTP308KK, No significant match): induced with cisplatin
Expression Pattern (Band # CTP309A, No significant match): repressed with cisplatin
